# Values of other authors, collected in patent US20090198080A1, “METHOD FOR THE PREPARATION OF ARYL ETHERS” (Pfizer Inc, priority 2004, published 2009).
# How the values were obtained:
# [1] = different animal models
# 8-OH-DPAT hypothermia = details: in vivo
smiles,measurement,setting,value
"CCOc1ccccc1O[C@@H](c1ccccc1)[C@@H]1CNCCO1 (racemic) [reboxetine, 2-[α-(2-ethoxyphenoxy)benzyl]morpholine]",norepinephrine reuptake inhibitory activity,norepinephrine reuptake,selective norepinephrine reuptake inhibitor
same,anticholinergic binding activity,[1],no anticholinergic binding activity
same,dopamine reuptake inhibitory activity,dopamine reuptake,no dopamine reuptake inhibitory activity
same,serotonin reuptake inhibitory activity,serotonin reuptake,only marginal
same,effect in the 8-OH-DPAT hypothermia test,8-OH-DPAT hypothermia,ineffective
same,monoamine oxidase (MAO) inhibitory activity,monoamine oxidase (MAO),substantially devoid
